From patent US4060527A, “Pyrido[2,3-c]-acridine-1-hydroxy-2-carboxylic acid derivatives” (Fuji Chemical Industries, Ltd., priority 1975, dated 1977)
Values after ≈ are worked out from the molar mass of the structure shown. Like-named read-outs stand apart in the source and are kept apart here.

Key:
[1] = in vivo; cited from earlier work
Escherichia coli [2] = assay: Antibacterial activity (MIC) against Escherichia coli as Gram-negative bacterium; assay type: cell-based; details: for MBC: Table 1, bacteriocidal, read-out: Escherichia coli bacteriocidal action; for MIC: Table 1, bacteriostatic, read-out: Escherichia coli bacteriostatic action (MIC)
Staphylococcus aureus [3] = assay: Antibacterial activity (MIC) against Staphylococcus aureus as Gram-positive bacterium; assay type: cell-based; details: for MBC: Table 1, bacteriocidal, read-out: Staphylococcus aureus bacteriocidal action; for MIC: Table 1, bacteriostatic, read-out: Staphylococcus aureus bacteriostatic action (MIC)
Escherichia coli [4] = assay: Antibacterial activity (MIC) against Escherichia coli as Gram-negative bacterium; assay type: cell-based; details: Escherichia coli; Table 3, class symbols; read-out: Antibacterial Activity (MIC) E. coli
Method: (§1) Some of the compounds of this invention were tested as to their antibacterial activity (MIC, mcg/ml) against Staph. aureus as Gram-positive bacterium and E. coli as Gram-negative bacterium. In the table, the antibacterial activity of 0.09 to 1.25 mcg/ml. is indicated as A1, and the antibacterial activity of more than 1.25 mcg/ml. and not more than 2.5 mcg/ml. is indicated as A2.

Staphylococcus aureus [5] = assay: Antibacterial activity (MIC) against Staphylococcus aureus as Gram-positive bacterium; assay type: cell-based; details: Staphylococcus aureus; Table 3, class symbols; read-out: Antibacterial Activity (MIC) Staph. aureus
Method: as §1

[6] = Acute toxicity LD50 on mouse; details: in vivo, sc
in vivo = details: mouse

In the case of acriflavin, the toxicity [1] is given as “fairly high toxicity, and exhibit high toxicity in internal administration”.
Compound `Cc1c2ccccc2nc2c1ccc1ncc(C(=O)O)c(O)c12` [Compound F-636] has an MBC (Escherichia coli [2]) of 2.5 µg/mL (≈ 8.22 µM), an MIC (Escherichia coli [2]) of 1.25 µg/mL (≈ 4.11 µM) and an MBC (Staphylococcus aureus [3]) of 1.25 µg/mL (≈ 4.11 µM). The MIC (Staphylococcus aureus [3]) was 1.25 µg/mL (≈ 4.11 µM), the MIC (Escherichia coli [4]) was 0.09 to 1.25 µg/mL (≈ 0.296 to 4.11 µM) and the MIC (Staphylococcus aureus [5]) was 0.09 to 1.25 µg/mL (≈ 0.296 to 4.11 µM). The LD50 [6] was > 3000 mg/kg, the LD50 (in vivo; iv) was 235 mg/kg and the LD50 (in vivo; po) was > 5000 mg/kg.
Work on `Cc1ccc2nc3c(ccc4ncc(C(=O)O)c(O)c43)cc2c1` [Compound F-637] yielded an MBC (Escherichia coli [2]) of 1.25 µg/mL (≈ 4.11 µM), an MIC (Escherichia coli [2]) of 0.62 µg/mL (≈ 2.04 µM) and an MBC (Staphylococcus aureus [3]) of 2.5 µg/mL (≈ 8.22 µM). For the same compound, the MIC (Staphylococcus aureus [3]) was 1.25 µg/mL (≈ 4.11 µM), the MIC (Escherichia coli [4]) was 0.09 to 1.25 µg/mL (≈ 0.296 to 4.11 µM) and the MIC (Staphylococcus aureus [5]) was 0.09 to 1.25 µg/mL (≈ 0.296 to 4.11 µM). The LD50 [6] was > 3000 mg/kg, the LD50 (in vivo; iv) was 256 mg/kg and the LD50 (in vivo; po) was > 5000 mg/kg.
`Cc1cc2cc3ccccc3nc2c2c(O)c(C(=O)O)cnc12` [Compound F-632] showed an MBC (Escherichia coli [2]) of 1.25 µg/mL (≈ 4.11 µM), an MIC (Escherichia coli [2]) of 0.62 µg/mL (≈ 2.04 µM) and an MBC (Staphylococcus aureus [3]) of 2.5 µg/mL (≈ 8.22 µM). It also gave an MIC (Staphylococcus aureus [3]) of 1.25 µg/mL (≈ 4.11 µM), an MIC (Escherichia coli [4]) of 0.09 to 1.25 µg/mL (≈ 0.296 to 4.11 µM) and an MIC (Staphylococcus aureus [5]) of 0.09 to 1.25 µg/mL (≈ 0.296 to 4.11 µM). For the same compound, the LD50 [6] was > 3000 mg/kg, the LD50 (in vivo; iv) was 253 mg/kg and the LD50 (in vivo; po) was > 5000 mg/kg.
